Test results as given in ChEMBL document CHEMBL1201862, “PubChem BioAssay data set” (2004).
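Cells were grown in 96-well plates and exposed to each compound for 48 hours at five concentrations; endpoints were interpolated linearly between bracketing concentrations, or set to the highest concentration if not reached. GI50: concentration for 50% inhibition of growth.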 Calls of active or inactive are those of the source. No stated cut-off is given here; in the data, active = GI50 up to about 1.1 µM and inactive = higher.

How the values were obtained:
Experiment in all cases: growth of human tumour cells (NCI), 48 h
IGROV-1 = tested on: IGROV-1
OVCAR-5 = tested on: OVCAR-5
UO-31 = tested on: UO-31
ACHN = tested on: ACHN
RPMI-8226 = tested on: RPMI-8226
T47D = tested on: T47D
CAKI-1 = tested on: CAKI-1
COLO 205 = tested on: COLO 205
SK-MEL-28 = tested on: SK-MEL-28
MOLT-4 = tested on: MOLT-4
HT-29 = tested on: HT-29
MCF7 = tested on: MCF7
SN12C = tested on: SN12C
A549 = tested on: A549
TK-10 = tested on: TK-10
NCI/ADR-RES = tested on: NCI/ADR-RES
MDA-MB-231 = tested on: MDA-MB-231
786-0 = tested on: 786-0
OVCAR-3 = tested on: OVCAR-3
SK-MEL-2 = tested on: SK-MEL-2

Compound	GI50 (IGROV-1)	GI50 (OVCAR-5)	GI50 (UO-31)	GI50 (ACHN)	GI50 (RPMI-8226)	GI50 (T47D)	GI50 (CAKI-1)	GI50 (COLO 205)	GI50 (SK-MEL-28)	GI50 (MOLT-4)	GI50 (HT-29)	GI50 (MCF7)	GI50 (SN12C)	GI50 (A549)	GI50 (TK-10)	GI50 (NCI/ADR-RES)	GI50 (MDA-MB-231)	GI50 (786-0)	GI50 (OVCAR-3)	GI50 (SK-MEL-2)
N=C(N)N/N=C/c1cnn(C(=N)N)c1	> 100 µM (inactive)	> 100 µM (inactive)	> 100 µM (inactive)	> 100 µM (inactive)	> 100 µM (inactive)	> 100 µM (inactive)	> 100 µM (inactive)	> 100 µM (inactive)	> 100 µM (inactive)	> 100 µM (inactive)	> 100 µM (inactive)	> 100 µM (inactive)	63.7 µM (inactive)	> 100 µM (inactive)	> 100 µM (inactive)	> 100 µM (inactive)	> 100 µM (inactive)	> 100 µM (inactive)	> 100 µM (inactive)	–
O=[N+]([O-])c1cccc(/N=C2\c3ccccc3CN2c2cccc([N+](=O)[O-])c2)c1	> 100 µM (inactive)	> 100 µM (inactive)	> 100 µM (inactive)	74.5 µM (inactive)	> 100 µM (inactive)	> 100 µM (inactive)	> 100 µM (inactive)	> 100 µM (inactive)	> 100 µM (inactive)	> 100 µM (inactive)	> 100 µM (inactive)	33.7 µM (inactive)	> 100 µM (inactive)	> 100 µM (inactive)	> 100 µM (inactive)	–	> 100 µM (inactive)	50.7 µM (inactive)	65 µM (inactive)	> 100 µM (inactive)
CCNCC(=O)Nc1ccc2c(c1)C(=O)c1ccc(NC(=O)CNCC)cc1C2=O	5.51 µM (inactive)	3.01 µM (inactive)	3.21 µM (inactive)	1.92 µM (inactive)	–	3.86 µM (inactive)	8.77 µM (inactive)	1.71 µM (inactive)	5.61 µM (inactive)	–	2.45 µM (inactive)	1.64 µM (inactive)	1.87 µM (inactive)	2.41 µM (inactive)	5.22 µM (inactive)	6.08 µM (inactive)	3.3 µM (inactive)	2.14 µM (inactive)	2.59 µM (inactive)	15.9 µM (inactive)
O=C(O)CCc1ccc2c(c1)C(=O)CC2	> 100 µM (inactive)	> 100 µM (inactive)	> 100 µM (inactive)	> 100 µM (inactive)	> 100 µM (inactive)	93.1 µM (inactive)	–	> 100 µM (inactive)	> 100 µM (inactive)	> 100 µM (inactive)	> 100 µM (inactive)	> 100 µM (inactive)	> 100 µM (inactive)	> 100 µM (inactive)	> 100 µM (inactive)	> 100 µM (inactive)	80.5 µM (inactive)	> 100 µM (inactive)	> 100 µM (inactive)	> 100 µM (inactive)
CCOC(=O)c1nnsc1NN=C(C)C	> 100 µM (inactive)	> 100 µM (inactive)	> 100 µM (inactive)	–	> 100 µM (inactive)	> 100 µM (inactive)	> 100 µM (inactive)	> 100 µM (inactive)	> 100 µM (inactive)	> 100 µM (inactive)	> 100 µM (inactive)	–	> 100 µM (inactive)	> 100 µM (inactive)	> 100 µM (inactive)	> 100 µM (inactive)	> 100 µM (inactive)	> 100 µM (inactive)	> 100 µM (inactive)	> 100 µM (inactive)
O=C(O)C(Cc1cc(I)c(O)c(I)c1)C1CCCCC1 (stereo not given)	27.5 µM (inactive)	49.2 µM (inactive)	45.7 µM (inactive)	30.3 µM (inactive)	–	29.9 µM (inactive)	30.6 µM (inactive)	–	59.7 µM (inactive)	28.4 µM (inactive)	30.8 µM (inactive)	–	32.2 µM (inactive)	31.9 µM (inactive)	24 µM (inactive)	37.4 µM (inactive)	21.8 µM (inactive)	51.9 µM (inactive)	15.6 µM (inactive)	–
COC(=O)c1ccc(C(=O)NC(Cc2ccc(Oc3cc(CC(NC(=O)c4ccccc4C(=O)OC)C(=O)OC)ccc3OC)cc2)C(=O)OC)cc1 (stereo not given)	> 100 µM (inactive)	> 100 µM (inactive)	> 100 µM (inactive)	> 100 µM (inactive)	> 100 µM (inactive)	> 100 µM (inactive)	> 100 µM (inactive)	> 100 µM (inactive)	> 100 µM (inactive)	> 100 µM (inactive)	> 100 µM (inactive)	67.5 µM (inactive)	> 100 µM (inactive)	> 100 µM (inactive)	> 100 µM (inactive)	> 100 µM (inactive)	–	> 100 µM (inactive)	> 100 µM (inactive)	77.8 µM (inactive)
CSc1ccc(/C=C/c2ccnc3ccccc23)cc1	16.4 µM (inactive)	17.7 µM (inactive)	11.8 µM (inactive)	14.1 µM (inactive)	8.43 µM (inactive)	5.58 µM (inactive)	–	11.3 µM (inactive)	17.4 µM (inactive)	12.2 µM (inactive)	14 µM (inactive)	13.6 µM (inactive)	15.5 µM (inactive)	12.5 µM (inactive)	13.9 µM (inactive)	9.73 µM (inactive)	17 µM (inactive)	14.8 µM (inactive)	13.2 µM (inactive)	16.1 µM (inactive)
CNc1ccc(OC)cc1S(=O)(=O)c1ccccc1[N+](=O)[O-]	> 100 µM (inactive)	> 100 µM (inactive)	> 100 µM (inactive)	> 100 µM (inactive)	> 100 µM (inactive)	49.8 µM (inactive)	–	> 100 µM (inactive)	> 100 µM (inactive)	27 µM (inactive)	> 100 µM (inactive)	> 100 µM (inactive)	> 100 µM (inactive)	98.2 µM (inactive)	> 100 µM (inactive)	69.8 µM (inactive)	> 100 µM (inactive)	> 100 µM (inactive)	> 100 µM (inactive)	> 100 µM (inactive)
O=C1OC2(CCCCC2)C(Oc2ccc(Cl)cc2)=C1F	54.8 µM (inactive)	74 µM (inactive)	49.5 µM (inactive)	45.4 µM (inactive)	32.7 µM (inactive)	37.2 µM (inactive)	77.4 µM (inactive)	26.5 µM (inactive)	23.7 µM (inactive)	20.3 µM (inactive)	26.8 µM (inactive)	37.8 µM (inactive)	45.2 µM (inactive)	42.1 µM (inactive)	85.1 µM (inactive)	–	77.3 µM (inactive)	48.3 µM (inactive)	40.3 µM (inactive)	23.8 µM (inactive)
COc1ccc2c(c1)CC[C@@H]1C2CC[C@]2(C)C(=C=CP(=O)(O)O)CCC12 (stereo not given in full)	> 100 µM (inactive)	> 100 µM (inactive)	–	> 100 µM (inactive)	< 0.01 µM (active)	> 100 µM (inactive)	> 100 µM (inactive)	> 100 µM (inactive)	> 100 µM (inactive)	–	> 100 µM (inactive)	79.6 µM (inactive)	> 100 µM (inactive)	> 100 µM (inactive)	> 100 µM (inactive)	> 100 µM (inactive)	–	> 100 µM (inactive)	> 100 µM (inactive)	> 100 µM (inactive)
O=c1cc(-c2ccccc2)oc2c(-c3cc(Cl)cc4c(=O)cc(-c5ccccc5)oc34)cc(Cl)cc12	22.5 µM (inactive)	37.9 µM (inactive)	16.8 µM (inactive)	16.2 µM (inactive)	25.2 µM (inactive)	16.4 µM (inactive)	–	31.8 µM (inactive)	35 µM (inactive)	10.2 µM (inactive)	34 µM (inactive)	24.5 µM (inactive)	32.8 µM (inactive)	29.1 µM (inactive)	45 µM (inactive)	28.8 µM (inactive)	32.7 µM (inactive)	27.4 µM (inactive)	24.3 µM (inactive)	35.7 µM (inactive)
CCOC(=O)c1nc2ccccc2nc1Oc1ccc(F)cc1	> 100 µM (inactive)	> 100 µM (inactive)	> 100 µM (inactive)	84.3 µM (inactive)	> 100 µM (inactive)	> 100 µM (inactive)	–	> 100 µM (inactive)	> 100 µM (inactive)	–	> 100 µM (inactive)	> 100 µM (inactive)	> 100 µM (inactive)	> 100 µM (inactive)	> 100 µM (inactive)	> 100 µM (inactive)	> 100 µM (inactive)	> 100 µM (inactive)	> 100 µM (inactive)	> 100 µM (inactive)
CN(/N=C/C=N/N(C)C1=NCCCCN1)C1=NCCCCN1	> 100 µM (inactive)	> 100 µM (inactive)	> 100 µM (inactive)	> 100 µM (inactive)	–	> 100 µM (inactive)	> 100 µM (inactive)	> 100 µM (inactive)	> 100 µM (inactive)	> 100 µM (inactive)	> 100 µM (inactive)	> 100 µM (inactive)	> 100 µM (inactive)	> 100 µM (inactive)	> 100 µM (inactive)	> 100 µM (inactive)	> 100 µM (inactive)	> 100 µM (inactive)	> 100 µM (inactive)	–
COC(=O)CCc1ccc2c(c1)CC1(Cc3ccccc3C1)C2	> 100 µM (inactive)	> 100 µM (inactive)	> 100 µM (inactive)	> 100 µM (inactive)	> 100 µM (inactive)	> 100 µM (inactive)	–	> 100 µM (inactive)	–	77.1 µM (inactive)	> 100 µM (inactive)	> 100 µM (inactive)	> 100 µM (inactive)	98.4 µM (inactive)	> 100 µM (inactive)	> 100 µM (inactive)	> 100 µM (inactive)	> 100 µM (inactive)	> 100 µM (inactive)	14.3 µM (inactive)
